In patent US10077277B2, “Bicyclic heteroarylaminoalkyl phenyl derivatives as PI3K inhibitors” (Incyte Corporation, priority 2014, dated 2018):

Key:
human JAK2 = human JAK2 (Homo sapiens (Human), UniProt O60674); experiment: In vitro JAK kinase assay (Example J), JAK2; format: biochemical; settings: ratio of IC50s, Assay J at 1 mM ATP
human JAK1 = human JAK1 (Homo sapiens, UniProt P23458); experiment: In vitro JAK kinase assay (Example J), JAK1; format: biochemical; settings: Assay J at 1 mM ATP

Sequence of human JAK2 (O60674 828-1132): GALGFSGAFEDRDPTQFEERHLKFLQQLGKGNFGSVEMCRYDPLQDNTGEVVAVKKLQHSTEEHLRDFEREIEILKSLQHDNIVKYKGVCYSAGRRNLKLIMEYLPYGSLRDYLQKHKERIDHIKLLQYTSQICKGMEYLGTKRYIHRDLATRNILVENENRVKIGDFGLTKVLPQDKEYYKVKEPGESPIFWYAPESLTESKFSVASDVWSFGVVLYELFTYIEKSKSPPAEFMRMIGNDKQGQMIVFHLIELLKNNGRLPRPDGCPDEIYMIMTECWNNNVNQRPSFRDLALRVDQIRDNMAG

| SMILES | JAK2/JAK1 (human JAK2) | IC50 (human JAK1) [nM] |
| --- | --- | --- |
| N#CCC(C1CCN(c2cccc(Cl)n2)C1)n1cc(-c2ncnc3[nH]ccc23)cn1 (centres unmarked) [bis(trifluoroacetate)] | >10 | < 10 |
| N#CC[C@]1(n2cc(-c3ncnc4[nH]ccc34)cn2)C[C@H](N2CCC(Oc3cc(CCO)cc(C(F)(F)F)n3)CC2)C1 [Example 26] | >10 | < 10 |
| N#CCC1(n2cc(-c3ncnc4[nH]ccc34)cn2)CN(C2CCN(C(=O)c3ccnc(C(F)(F)F)n3)CC2)C1 [Example 9, [3-[4-(7H-pyrrolo[2,3-d]pyrimidin-4-yl)-1H-pyrazol-1-yl]-1-(1-{[2-(trifluoromethyl)pyrimidin-4-yl]carbonyl}piperidin-4-yl)azetidin-3-yl]acetonitrile] | >10 | < 10 |
| N#CC[C@]1(n2cc(-c3ncnc4[nH]ccc34)cn2)C[C@H](N2CCC(Oc3cc(CN4CCC[C@@H]4CO)cc(C(F)(F)F)n3)CC2)C1 [Example 13] | >10 | < 10 |
| N#CCC1(n2cc(-c3ncnc4[nH]ccc34)cn2)CN(C2CCN(C(=O)Nc3ccc(F)cc3C(F)(F)F)CC2)C1 [Example 8, 4-{3-(Cyanomethyl)-3-[4-(7H-pyrrolo[2,3-d]pyrimidin-4-yl)-1H-pyrazol-1-yl]azetidin-1-yl}-N-[4-fluoro-2-(trifluoromethyl)phenyl]piperidine-1-carboxamide] | >10 | < 10 |
| N#CCC(CN1CCN(C(=O)c2ccc(C#N)cc2F)CC1)n1cc(-c2ncnc3[nH]ccc23)cn1 (centres unmarked) [Example 5] | >10 | < 10 |
| N#CCC(CN1CCN(C(=O)c2ccc(C#N)cc2F)CC1)n1cc(-c2ncnc3[nH]ccc23)cn1 (centres unmarked) [Example 6] | >10 |  |
| N#CC[C@]1(n2cc(-c3ncnc4[nH]ccc34)cn2)C[C@H](N2CCN(C(=O)c3ccnc(C(F)(F)F)n3)CC2)C1 [Example 10] | >10 | < 10 |

Other lines, results leading:

| JAK2/JAK1 (human JAK2) | IC50 (human JAK1) [nM] | SMILES |
| --- | --- | --- |
| >10 | < 10 | N#CC[C@]1(n2cc(-c3ncnc4[nH]ccc34)cn2)C[C@H](N2CCC(Oc3cc(CN4CC(O)C4)cc(C(F)(F)F)n3)CC2)C1 [Example 11] |
| >10 | < 10 | C[C@H](O)CNCc1cc(OC2CCN([C@H]3C[C@](CC#N)(n4cc(-c5ncnc6[nH]ccc56)cn4)C3)CC2)nc(C(F)(F)F)c1 [Example 25] |
| >10 | < 10 | N#CCC1(n2cc(-c3ncnc4[nH]ccc34)cn2)CN([C@H]2CC[C@@H](Oc3cc(CN4CC[C@H](O)C4)cc(C(F)(F)F)n3)CC2)C1 [Example 22, {1-(cis-4-{[4-{[(3S)-3-hydroxypyrrolidin-1-yl]methyl}-6-(trifluoromethyl)pyridin-2-yl]oxy}cyclohexyl)-3-[4-(7H-pyrrolo[2,3-d]pyrimidin-4-yl)-1H-pyrazol-1-yl]azetidin-3-yl}acetonitrile] |
| >10 | < 10 | N#CCC1(n2cc(-c3ncnc4[nH]ccc34)cn2)CN(C2CCN(C(=O)c3ccnc(C(F)(F)F)c3F)CC2)C1 [Example 7, {1-{1-[3-Fluoro-2-(trifluoromethyl)isonicotinoyl]piperidin-4-yl}-3-[4-(7H-pyrrolo[2,3-d]pyrimidin-4-yl)-1H-pyrazol-1-yl]azetidin-3-yl}acetonitrile] |
| >10 | < 10 | C[C@H](NC(=O)c1cc(F)c(N2CC(CC#N)(n3cc(-c4ncnc5[nH]ccc45)cn3)C2)cc1F)C(F)(F)F [Example 16] |
| >10 | < 10 | N#CCC1(n2cc(-c3ncnc4[nH]ccc34)cn2)CN([C@H]2CC[C@@H](Oc3cc(CCO)nc(C(F)(F)F)n3)CC2)C1 [Example 18, {1-(cis-4-{[6-(2-hydroxyethyl)-2-(trifluoromethyl)pyrimidin-4-yl]oxy}cyclohexyl)-3-[4-(7H-pyrrolo[2,3-d]pyrimidin-4-yl)-1H-pyrazol-1-yl]azetidin-3-yl}acetonitrile] |
| >10 | < 10 | C[C@@H](CO)NCc1cc(OC2CCN([C@H]3C[C@](CC#N)(n4cc(-c5ncnc6[nH]ccc56)cn4)C3)CC2)nc(C(F)(F)F)c1 [Example 23] |
